Laboratory results published in patent publication US7087626B2, “Pyrrole derivatives as pharmaceutical agents” (Eli Lilly and Company, priority 2001, dated 2006).

Target: T1, TGF-β Type II (RII WT) receptor (Homo sapiens, UniProt P37173)
T1 construct: The 6×-HIS tagged cytoplasmic kinase domain of each receptor was expressed and purified from Sf9 insect cell lysates; 6xHis; made in house; host or cells: Sf9 insect cells
T1 sequence (P37173 244-544 limits assumed): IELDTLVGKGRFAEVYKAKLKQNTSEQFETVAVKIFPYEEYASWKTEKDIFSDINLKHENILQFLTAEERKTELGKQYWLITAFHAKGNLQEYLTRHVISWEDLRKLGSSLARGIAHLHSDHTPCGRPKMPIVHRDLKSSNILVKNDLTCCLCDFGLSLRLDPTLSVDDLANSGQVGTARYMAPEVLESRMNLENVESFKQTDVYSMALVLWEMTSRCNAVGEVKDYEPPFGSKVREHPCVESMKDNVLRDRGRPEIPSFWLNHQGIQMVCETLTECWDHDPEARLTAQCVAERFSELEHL
Test: TGF-β Receptor II (RII WT) in vitro kinase reaction
Assay type: biochemical
Conditions: 6×-HIS cytoplasmic kinase domain, 4 uM ATP, 30° C., 40 min
Procedure: (§1) TGF-β Receptor I and II Purification and in vitro Kinase Reactions
(§2) For TGF-β Type I (RIT204D) and Type II (RII WT) Receptors: The 6×-HIS tagged cytoplasmic kinase domain of each receptor was expressed and purified from Sf9 insect cell lysates as briefly described below:
(§3) Cell pellets after 48-72 hrs of infection were lysed in lysis buffer (LB: 50 mM Tris pH 7.5, 150 mM NaCl, 50 mM NaF, 0.5% NP40 with freshly added 20 mM, β-mercaptoethanol, 10 mM imidazole, 1 mM PMSF, 1×EDTA-free Complete Protease Inhibitor (Boehringer Mannheim).
Cell lysates were clarified: by centrifugation and […] filtered prior to purification by Ni/NTA affinity chromatography (Qiagen).
Equilibrate with 10 CV of LB, load sample, wash with 10 CV RIPA buffer (50 mM Tris pH 7.5, 150 mM NaCl, 1% NP40, 1 mM EDTA, 0.25% sodium deoxycholate, added fresh 20 mM β-mercaptoethanol, 1 mM PMSF), wash with 10 CV LB, wash with 10 CV 1×KB (50 mM Tris pH 7.5, 150 mM NaCl, 4 mM MgCl2, 1 mM NaF, 2 mM β-mercaptoethanol), elute with a linear gradient of 1×KB containing 200 mM Imidazole.
Both enzymes were approximately 90% pure and had autophosphorylation activity.
(§4) Reactions: 170-200 nM enzyme in 1×KB, compound dilution series in 1×KB/16% DMSO (20 uM to 1 nM final concentration with 4% DMSO final concentration), reactions started by adding ATP mix (4 uM ATP/1 uCi ^33P-[…]-ATP final concentrations) in 1×KB.
(§5) Reactions were incubated at 30° C. for 1 hr RIT204D or 40 min for RII WT. Reactions were stopped and quantitated using standard TCA/BSA precipitation onto Millipore FB glass fiber filter plates and by liquid scintillation counting on a MicroBeta JET.

IC50, < 20 µM:
OC1CCCc2c(-c3ccnc4ccccc34)c(-c3ccccn3)nn21 (centres unmarked) [2-Pyridin-2-yl-3-quinolin-4-yl-pyrazolo[1,5-a]piperidin-7-ol]
O=C1OCCN1c1ccc2c(-c3c(-c4ccccn4)nn4c3CCC4)ccnc2c1 [3-[4-(2-Pyridin-2-yl-5,6-dihydro-4H-pyrrolo[1,2-b]pyrazol-3-yl)-quinolin-7-yl]-oxazolidin-2-one]
Cc1cccc(-c2nn3c(c2-c2ccnc4cc(C=CC(=O)O)ccc24)CCC3)n1 [3-{4-[2-(6-Methyl-pyridin-2-yl)-5,6-dihydro-4H-pyrrolo[1,2-b]pyrazol-3-yl]-quinolin-7-yl}-acrylic acid]
Nc1ccc2c(-c3c(-c4ccccn4)nn4c3CCC4)ccnc2c1 [4-(2-Pyridin-2-yl-5,6-dihydro-4H-pyrrolo[1,2-b]pyrazol-3-yl)-quinolin-7-ylamine]
O=C(NC1CC1)c1ccc2c(-c3c(-c4ccccn4)nn4c3CCC4)ccnc2c1 [4-(2-Pyridin-2-yl-5,6-dihydro-4H-pyrrolo[1,2-b]pyrazol-3-yl)-quinoline-7-carboxylic acid cyclopropylamide]
O=C(Nc1ccccn1)c1ccc2c(-c3c(-c4ccccn4)nn4c3CCC4)ccnc2c1 [4-(2-Pyridin-2-yl-5,6-dihydro-4H-pyrrolo[1,2-b]pyrazol-3-yl)-quinoline-7-carboxylic acid pyridin-2-ylamide]
CCC(C)CNC(=O)c1ccc2c(-c3c(-c4ccccn4)nn4c3CCC4)ccnc2c1 (centres unmarked) [4-(2-Pyridin-2-yl-5,6-dihydro-4H-pyrrolo[1,2-b]pyrazol-3-yl)-quinoline-7-carboxylic acid(2-methyl-butyl)-amide]
FC(F)(F)c1cccc(-c2nn3c(c2-c2ccnc4ccccc24)CCC3)c1 [4-[2-(3-Trifluoromethylphenyl)-5,6-dihydro-4H-pyrrolo[1,2-b]pyrazol-3-yl]-quinoline]
Cc1cccc(-c2nn3c(c2-c2ccnc4ccc(-c5ccccc5)cc24)CCC3)n1 [4-[2-(6-Methyl-pyridin-2-yl)-5,6-dihydro-4H-pyrrolo[1,2-b]pyrazol-3-yl]-6-phenyl-quinoline]
COc1cccc(C2Cc3c(-c4ccnc5ccccc45)c(-c4ccccn4)nn3C2)c1 (centres unmarked) [4-[5-(3-Methoxy-phenyl)-2-pyridin-2-yl-5,6-dihydro-4H-pyrrolo[1,2-b]pyrazol-3-yl]-quinoline]
ClCCCOc1ccc2c(-c3c(-c4ccccn4)nn4c3CCC4)ccnc2c1 [7-(3-Chloro-propoxy)-4-(2-pyridin-2-yl-5,6-dihydro-4H-pyrrolo[1,2-b]pyrazol-3-yl)-quinoline]
CC(C)c1cc(-c2c(-c3ccccn3)nn3c2CCC3)c2ccc(Br)cc2n1 [7-Bromo-2-isopropyl-4-(2-pyridin-2-yl-5,6-dihydro-4H-pyrrolo[1,2-b]pyrazol-3-yl)-quinoline]
CN(C)CCOc1ccc2c(-c3c(-c4ccccn4)nn4c3CCC4)ccnc2c1 [Dimethyl-{2-[4-(2-pyridin-2-yl-5,6-dihydro-4H-pyrrolo[1,2-b]pyrazol-3-yl)-quinolin-7-yloxy]-ethyl}-amine]
CCN(C)CCCOc1ccc2c(-c3c(-c4ccccn4)nn4c3CCC4)ccnc2c1 [Ethyl-methyl-{3-[4-(2-pyridin-2-yl-5,6-dihydro-4H-pyrrolo[1,2-b]pyrazol-3-yl)-quinolin-7-yloxy]-propyl}-amine]
Cc1cccc(-c2nn3c(c2-c2ccnc4cc(Br)ccc24)CCC3CO)n1 (centres unmarked) [[3-(7-Bromo-quinolin-4-yl)-2-(6-methyl-pyridin-2-yl)-5,6-dihydro-4H-pyrrolo[1,2-b]pyrazol-6-yl]3-methanol]

Target: T2, TGF-β Type I (RIT204D) receptor (Homo sapiens, UniProt P36897, T204D)
T2 construct: The 6×-HIS tagged cytoplasmic kinase domain of each receptor was expressed and purified from Sf9 insect cell lysates; 6xHis; made in house; host or cells: Sf9 insect cells
T2 sequence (P36897 148-503 T204D limits assumed): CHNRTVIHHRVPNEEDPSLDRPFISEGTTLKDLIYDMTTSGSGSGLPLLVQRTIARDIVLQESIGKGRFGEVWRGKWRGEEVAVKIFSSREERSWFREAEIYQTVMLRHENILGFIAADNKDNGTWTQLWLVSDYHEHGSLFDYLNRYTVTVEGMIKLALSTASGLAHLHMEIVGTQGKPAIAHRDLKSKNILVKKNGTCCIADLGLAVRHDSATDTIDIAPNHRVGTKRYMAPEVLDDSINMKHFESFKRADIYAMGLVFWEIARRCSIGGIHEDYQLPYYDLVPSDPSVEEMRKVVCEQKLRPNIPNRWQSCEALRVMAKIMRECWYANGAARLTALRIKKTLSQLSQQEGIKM
Test: TGF-β Receptor I (RIT204D) in vitro kinase reaction
Assay type: biochemical
Conditions: 6×-HIS cytoplasmic kinase domain, 4 uM ATP, 30° C., 1 hr
Procedure: as §1, §2, §3, §4, §5

IC50, < 20 µM:
Cc1cccc(-c2nn3c(c2-c2cccnc2)CCC3)n1 [2-(6-methyl-pyridin-2-yl)-3-pyridin-3-yl-5,6-dihydro-4H-pyrrolo[1,2-b]pyrazole]
Cc1cccc(-c2nn3c(c2-c2ccc(F)cc2)CCC3)n1 [3-(4-Fluorophenyl)-2-(6-methylpyridin-2-yl)-5,6-dihydro-4H-pyrrolo[1,2-b]pyrazole]
COc1ccc(-c2c(-c3cccc(C)n3)nn3c2CCC3)cc1 [3-(4-Methoxyphenyl)-2-(6-methylpyridin-2-yl)-5,6-dihydro-4H-pyrrolo[1,2-b]pyrazole]
COC(=O)/C=C/c1ccc2c(-c3c(-c4cccc(C)n4)nn4c3CCC4)ccnc2c1 [3-{4-[2-(6-Methyl-pyridin-2-yl)-5,6-dihydro-4H-pyrrolo[1,2-b]pyrazol-3-yl]-quinolin-7-yl}-acrylic acid methyl ester]
CN(C)CCCN(C)C(=O)c1ccc2c(-c3c(-c4ccccn4)nn4c3CCC4)ccnc2c1 [4-(2-Pyridin-2-yl-5,6-dihydro-4H-pyrrolo[1,2-H]pyrazol-3-yl)-quinoline-7-carboxylic acid(3-dimethylamino-propyl)-methyl-amide]
CCCNC(=O)c1ccc2c(-c3c(-c4ccccn4)nn4c3CCC4)ccnc2c1 [4-(2-Pyridin-2-yl-5,6-dihydro-4H-pyrrolo[1,2-b]pyrazol-3-yl)-quinoline-7-carboxylic acid propylamide]
c1csc(-c2nn3c(c2-c2ccnc4ccccc24)CCC3)c1 [4-(2-Thiophen-2-yl-5,6-dihydro-4H-pyrrolo[1,2-b]pyrazol-3-yl)quinoline]
Clc1cccc(-c2nn3c(c2-c2ccnc4ccccc24)CCCC3)c1 [4-[2-(3-Chloro-phemyl)-4,5,6,7-tetrahydro-pyrazolo[1,5-alpyridin-3-y]-quinoline]
FC(F)(F)Oc1cccc(-c2nn3c(c2-c2ccnc4ccccc24)CCC3)c1 [4-[2-(3-Trifluoromethoxy-phenyl)-5,6-dihydro-4H-pyrrolo[1,2-b]pyrazol-3-yl]-quinoline]
c1ccc(Cc2cccc(-c3nn4c(c3-c3ccnc5ccccc35)CCC4)n2)cc1 [4-[2-(6-Benzyl-pyridin-2-yl)-5,6-dihydro-4H-pyrrolo[1,2-b]pyrazol-3-yl]-quinoline]
CS(=O)(=O)c1ccc2c(-c3c(-c4ccccn4)nn4c3CCC4)ccnc2c1 [7-Methanesulfonyl-4-(2-pyridin-2-yl-5,6-dihydro-4H-pyrrolo[1,2-b]pyrazol-3-yl)-quinoline]
CN(C)CCCCOc1cc(-c2c(-c3ccccn3)nn3c2CCC3)ccn1 [Dimethyl-{4-[4-(2-pyridin-2-yl-5,6-dihydro-4H-pyrrolo[1,2-b]pyrazol-3-yl)-pyridin-2-yloxy]-butyl}-amine]
CN(C)CCCNc1cc(-c2c(-c3ccccn3)nn3c2CCC3)ccn1 [N,N-Dimethyl-N′-[4-(2-pyridin-2-yl-5,6-dihydro-4H-pyrrolo[1,2-b]pyrazol-3-yl)-pyridin-2-yl]-propane-1,3-diamine]
CC(=O)NCCCOc1ccc2c(-c3c(-c4ccccn4)nn4c3CCC4)ccnc2c1 [N-{3-[4-(2-Pyridin-2-yl-5,6-dihydro-4H-pyrrolo[1,2-b]pyrazol-3-yl)-quinolin-7-yloxy]-propyl}-acetamide]
